Experimental data: US20250059139A1, “COMPOUNDS FOR TREATMENT OF CANCER” (THE JOHNS HOPKINS UNIVERSITY, priority 2021, published 2025)

Key:
[1] = tested on: CWR22-RH human prostate cancer PDXs; experiment: In vivo growth of CWR22-RH xenografts in castrate NSG male mice; details: for CWR22-RH Tumor Growth (% inhibition +/− SD): castrate mice treated orally over a 3 week period, 10 mg/kg/d, n = 5/group; for growth inhibitor (GI) activity on CWR22-RH xenografts (SAR summary): in vivo
Description: Prostate Cancer Models. The source, history, and characteristics of the human prostate cancer cell lines and PDXs used, as well as cell culture conditions for their in vitro maintenance and the in vivo protocol for xenograft growth in triple immune-deficient NSG (i.e. NOD.Cg-PrkdcScidIl2rgtmlWji/Szj), adult (>8 week old) male mice obtained from the Sidney Kimmel Comprehensive Cancer Center (SKCCC) Animal Core Facility are described previously (Isaacs 2013; Brennen et al. JCI Insight. 2021, 6(8):e146827; Zhu et al. Oncogene 2020, 39(45): 6935-6949). Similar information concerning the TRAMP-C2 and B6CaP mouse prostate cancers originating in a C57BL/6J male mice are described previously (Foster et al. Cancer Res. 1997, 57: 3325-3330; Simons et al. Oncotarget. 2019, 10(64):6845-6854). In vitro growth curves were determined as described (Isaacs 2013). In vivo growth response to oral daily TasQ (10 mg/kg/d) of TRAMP-C2 mouse prostate cancers was evaluated in C57BL/6J syngeneic wild type vs. NOX-2 vs. iNOS null male mice obtained from Jackson Laboratory (Bar Harbor, ME). Growth response to oral daily TasQ (10 mg/kg/d) of TRAMP-C2 and B6CaP mouse prostate cancers was also evaluated in S100A9 null C57BL′6J male mice obtained from Dmitry Gabrilovich (Wistar Institute). All lines were mycoplasma negative using the MycoSensor PCR Assay kit (Agilent Technologies) and genetically authenticated within the last 6 months using short tandem repeat profiling conducted by the Johns Hopkins Genetic Resource Core Facility. In vitro growth curves were determined as described (Isaacs 2013). Growth response to daily oral TasQ vs. ESATA-20 (both at 10 mg/kg/d) of Myc-CaP-CR mouse prostate cancer was evaluated in syngeneic FVB/NJ castrate male mice from Jackson Laboratory. Animal studies were conducted according to animal protocols approved by Johns Hopkins Animal Care and Use Committee. Tumor volume measurements were as described previously (id.). In vivo experiments were repeated multiple independent times for each model used with 3-5 mice per treatment grouping.
(§1) Oral Drug treatment. TasQ at the indicated dose was initially dissolved with equal molar 1 N sodium hydroxide. This solution was diluted with sterile water and the mixture stirred for 1 hr. The pH was then adjusted with 1 N HCl to 8.9 and 200 μL given daily via oral gavage.
Due to these combined effects, maximal growth inhibition of CWR22-RH, a castration-resistant prostate cancer patient-derived xenograft (PDX), is obtained as maintenance therapy with oral daily dosing of ≥5 mg/kg/d (FIG. 1). […] Previous studies documented that in vitro treatment of human prostate cancer cells (LNCaP) with 1-10 μM TasQ rapidly (i.e., ≤1 day) induces the transcription of a series of AHR target genes (e.g., Cyp1a1, Cyp1b1, AHRR, TPARP, GDF15) (Olsson 2010). […]

[2] = target: T1, Human Aryl Hydrocarbon Receptor (AHR) (Homo sapiens, UniProt P35869); experiment: Human AHR reporter assay (cell-based  luciferase reporter gene assay); details: n = 4 independent assays/analog; read-out: AHR Agonist Response [EC50] (nM +/−SD)
T1 construct: purchased Indigo Biosciences IB06001
T1 sequence (P35869 11-848): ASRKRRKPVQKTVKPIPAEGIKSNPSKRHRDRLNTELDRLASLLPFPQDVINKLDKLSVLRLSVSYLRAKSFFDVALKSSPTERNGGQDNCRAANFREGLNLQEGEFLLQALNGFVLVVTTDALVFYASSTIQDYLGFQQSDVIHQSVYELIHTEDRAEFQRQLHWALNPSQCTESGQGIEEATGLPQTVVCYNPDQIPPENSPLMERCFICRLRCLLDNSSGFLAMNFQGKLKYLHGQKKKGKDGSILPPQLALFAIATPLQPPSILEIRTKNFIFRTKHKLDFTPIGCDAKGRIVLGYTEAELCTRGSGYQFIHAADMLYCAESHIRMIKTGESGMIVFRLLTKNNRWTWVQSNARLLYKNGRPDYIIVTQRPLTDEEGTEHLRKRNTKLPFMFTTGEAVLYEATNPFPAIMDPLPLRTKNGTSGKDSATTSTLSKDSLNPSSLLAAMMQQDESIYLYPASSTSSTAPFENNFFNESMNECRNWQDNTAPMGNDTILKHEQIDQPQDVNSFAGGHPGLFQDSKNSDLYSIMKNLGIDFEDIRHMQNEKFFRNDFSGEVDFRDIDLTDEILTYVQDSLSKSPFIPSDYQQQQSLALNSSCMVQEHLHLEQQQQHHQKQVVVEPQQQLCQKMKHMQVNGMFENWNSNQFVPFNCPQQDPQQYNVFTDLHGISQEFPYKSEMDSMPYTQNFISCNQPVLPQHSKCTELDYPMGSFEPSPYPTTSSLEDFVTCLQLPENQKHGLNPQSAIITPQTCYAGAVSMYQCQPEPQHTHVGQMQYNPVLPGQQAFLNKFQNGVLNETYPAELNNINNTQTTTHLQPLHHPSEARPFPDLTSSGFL
Description: AHR Agonist Assay. Human Aryl Hydrocarbon Receptor (AHR) Reporter Assay System [Indigo Biosciences (State College, Pa) Cat #IB06001] was used as per the manufacturer's protocol.

[3] = tested on: LvCaP-3 human prostate cancer PDXs; experiment: In vivo growth of LvCaP-3 xenografts in castrate hosts; details: daily oral 10 mg/kg
Description: Prostate Cancer Models. The source, history, and characteristics of the human prostate cancer cell lines and PDXs used, as well as cell culture conditions for their in vitro maintenance and the in vivo protocol for xenograft growth in triple immune-deficient NSG (i.e. NOD.Cg-PrkdcScidIl2rgtmlWji/Szj), adult (>8 week old) male mice obtained from the Sidney Kimmel Comprehensive Cancer Center (SKCCC) Animal Core Facility are described previously (Isaacs 2013; Brennen et al. JCI Insight. 2021, 6(8):e146827; Zhu et al. Oncogene 2020, 39(45): 6935-6949). […] In vitro growth curves were determined as described (Isaacs 2013). In vivo growth response to oral daily TasQ (10 mg/kg/d) of TRAMP-C2 mouse prostate cancers was evaluated in C57BL/6J syngeneic wild type vs. NOX-2 vs. iNOS null male mice obtained from Jackson Laboratory (Bar Harbor, ME). Growth response to oral daily TasQ (10 mg/kg/d) of TRAMP-C2 and B6CaP mouse prostate cancers was also evaluated in S100A9 null C57BL′6J male mice obtained from Dmitry Gabrilovich (Wistar Institute). […] In vitro growth curves were determined as described (Isaacs 2013). Growth response to daily oral TasQ vs. ESATA-20 (both at 10 mg/kg/d) of Myc-CaP-CR mouse prostate cancer was evaluated in syngeneic FVB/NJ castrate male mice from Jackson Laboratory. […]

thymus = experiment: AHR agonist induced thymus regression in FVB male mice; format: in vivo, mouse
Experimental: To evaluate AHR agonist induced thymus regression, groups of five 4-week old FVB male mice from Jackson Laboratory were treated with either vehicle, Linomide, TasQ, or its analogs daily by orally gavage for 2 weeks and then the thymus removed and weighted.
as §1
This means that in the clinical setting, dose-escalation above 1 mg/d of TasQ as needed to reach this >2 μM blood level for optimal anti-cancer efficacy will also enhance unwanted off-target AHR induction. Therefore, a medicinal chemical approach was undertaken to identify third generation quinoline-3-carboxamide analogs with increased HDAC4 inhibition, but with reduced AHR agonism. The approach taken is based upon the earlier SPR analysis documenting that TasQ linked to the surface chip via its aniline-N is a potent binder of HDAC4. Thus, a series of quinoline-3-carboxamide analogs were synthesized focusing upon adduct changes at the aniline-N. These analogs were synthesized as described in Example 1, and were initially screened for their AHR agonist activity using the in vitro human cell-based ARE-driven luciferase reporter gene assay (Table 3).

fl-HDAC4 (wild-type) = target: T2, fl-HDAC4 (wild-type) (Homo sapiens, UniProt P56524); experiment: SPR binding analysis TasQ / fl-HDAC4; details: compound at >30 μM in solution, Zn2+ present
T2 construct: Full-length (fl) [A.A. 1-1082] recombinant human histone deacetylase 4 (rhHDAC4) protein; FLAG (N); GST (given as 'with or without'); made in house; host or cells: HEK293-T
Experimental: Surface Plasmon Resonance (SPR) Binding Analysis. SPR analysis was performed on the Biacore 3000™ system using CM5 sensor chips, certified buffers (HBS-P—10 mM HEPES, 0.15 M NaCl, pH 7.4, containing 0.005% v/v Surfactant P; HBS-EP-HBS-P with 3 mM EDTA) and reagents for immobilization and surface regeneration from Biacore, GE Healthcare, Uppsala Sweden. Evaluation of sensorgrams was performed using the BIA-evaluation Software version 4.1 and GraphPad Prism 4. Buffer of protein reagents were changed to HBS-P on Zeba spin desalting columns (Thermo Scientific) prior to being used in SPR analysis (Isaacs 2013).
A. Binding of wild-type and mutant forms of HDAC4 to immobilized TasQ. TasQ (ABR-215050; mol wt 406.4) was dissolved as a 40 mM solution in water with 1.5 equivalents of NaOH. TasQ with an amino-linker [i.e. —(CH2)2O(CH2)2—NH2](ABR-225180) in amide nitrogen position was used for amine coupling on to a Biacore CM5 sensor chip. A 1 mg/mL solution of ABR-225180 in HBS-P buffer was prepared and immobilized on a CM5 chip by injection at a flow rate of 5 or 10 μL/min until a stable response level was reached. Interaction of various HDAC4 forms with immobilized TasQ was studied by injection over this surface in HBS-P buffer containing 10 or 20 μM ZnCl2. Bound HDAC4 was removed by a pulse of 3 mM EDTA in HBS-P or 0.5 to 6.25 mM NaOH in water. In a second series of experiments, the ability of TasQ in solution to displace this binding was studied by pre-incubation of HDAC4 with TasQ as competitor.
B. Binding of TasQ to immobilized HDAC4 and NCoR1. Different variants of HDAC4 (full-length wild-type and mutant forms and the truncated protein) and full-length NCoR1 were immobilized on a CM5 chip using random amine coupling. Briefly, proteins were dissolved in 10 mM sodium acetate buffer at pH 5.0 or 5.5 and immobilized to the aimed level using the standard protocol from GE Healthcare. Serially diluted TasQ in HBS-P buffer with 10 or 20 μM Zn was injected (for 2 or 3 min at a flow rate of 30 μl/min) either directly or after a 1st injection of 1 mM DTT to reduce cysteines in the zinc conformation site in HDAC4. Regeneration was made with a short pulse of HBS-EP.
To evaluate the conformational requirements for TasQ's binding to HDAC4, surface plasmon resonance (SPR) analysis was utilized. To maximize conformational flexibility, TasQ is immobilized onto the surface of a Biacore CM5 sensor chip via an amino-linker [i.e. —(CH2)2—O—(CH2)2—NH2] in its amide nitrogen position.
By comparison, Linomide even at >30 μM in solution binds only 10-15% of the immobilized fl-HDAC4 protein despite the presence of Zn^+2 (FIG. 14). […] The fact that the KD for binding of soluble TasQ to immobilized fl-HDAC4 is higher than the KD for binding of soluble fl-HDAC4 with immobilized TasQ is predictable. This is because the conformational dynamics of fl-HDAC4 protein immobilized on the chip are more restrictive due to the multiple random amine coupling than the conformational dynamics of TasQ immobilized via a single amino-linker.
To address this possibility, a competitive binding assay was developed based upon the ability of TasQ in solution to compete with immobilized TasQ on the SPR-chip for binding to fl-HDAC4.

mCRPC patients = details: human, in vivo; cited from earlier work

T2 sequence (P56524 whole entry): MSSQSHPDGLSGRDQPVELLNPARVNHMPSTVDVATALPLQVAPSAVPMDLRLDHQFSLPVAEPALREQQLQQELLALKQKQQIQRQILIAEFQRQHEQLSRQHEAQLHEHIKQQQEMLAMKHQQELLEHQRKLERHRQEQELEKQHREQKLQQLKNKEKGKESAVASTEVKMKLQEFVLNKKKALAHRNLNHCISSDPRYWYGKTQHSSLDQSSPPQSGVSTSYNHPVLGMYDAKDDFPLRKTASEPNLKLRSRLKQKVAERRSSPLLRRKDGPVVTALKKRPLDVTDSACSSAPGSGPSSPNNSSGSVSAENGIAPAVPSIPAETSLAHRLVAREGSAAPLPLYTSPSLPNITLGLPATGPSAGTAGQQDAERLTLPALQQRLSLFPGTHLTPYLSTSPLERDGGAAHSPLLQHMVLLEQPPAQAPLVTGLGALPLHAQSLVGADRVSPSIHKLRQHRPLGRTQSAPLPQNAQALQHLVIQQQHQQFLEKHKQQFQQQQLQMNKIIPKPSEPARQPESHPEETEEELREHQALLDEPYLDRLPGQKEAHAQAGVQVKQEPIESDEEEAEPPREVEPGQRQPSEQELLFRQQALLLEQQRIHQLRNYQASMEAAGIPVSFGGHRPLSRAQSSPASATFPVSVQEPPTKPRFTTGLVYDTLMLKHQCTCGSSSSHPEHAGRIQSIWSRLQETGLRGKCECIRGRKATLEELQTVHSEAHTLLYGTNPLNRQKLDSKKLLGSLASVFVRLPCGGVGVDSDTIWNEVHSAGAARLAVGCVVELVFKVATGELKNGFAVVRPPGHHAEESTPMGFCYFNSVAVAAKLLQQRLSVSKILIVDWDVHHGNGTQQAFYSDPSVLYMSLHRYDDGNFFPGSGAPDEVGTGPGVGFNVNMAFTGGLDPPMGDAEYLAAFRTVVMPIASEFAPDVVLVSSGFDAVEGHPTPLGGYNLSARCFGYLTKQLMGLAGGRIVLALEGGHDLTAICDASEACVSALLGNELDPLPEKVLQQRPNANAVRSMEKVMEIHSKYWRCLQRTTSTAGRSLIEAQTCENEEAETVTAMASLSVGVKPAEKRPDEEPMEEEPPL

| Structure (SMILES) | CWR22-RH Tumor Growth (% inhibition +/− SD) [1] | EC50 [2] [nM] | growth inhibitor (GI) activity on CWR22-RH xenografts (SAR summary) [1] | also measured |
| --- | --- | --- | --- | --- |
| COc1cccc2c1c(O)c(C(=O)N(c1ccccc1)C1CCCCC1)c(=O)n2C [ESATA-28] | <10% | 1300 | – | – |
| COC(=O)c1c(O)c2c(OC)cccc2n(C)c1=O [ESATA-2] | – | > 100000 | no GI activity | – |
| C[C@]12CC[C@H](O)CC1=CC[C@@H]1[C@@H]2CC[C@]2(C)C(c3cccnc3)=CC[C@@H]12 [Abiraterone] | <10% | > 50000 | – | – |
| COc1cccc2c1c(O)c(C(=O)N(CCOCc1ccccc1)c1ccc(C(F)(F)F)cc1)c(=O)n2C [ESATA-14] | <10% | 1100 | no GI activity | – |
| CCOc1c(C(=O)N(c2ccc(C(F)(F)F)cc2)C2CCCCC2)c(=O)n(C)c2cccc(OC)c12 [ESATA-25] | <10% | 10500 | no GI activity | – |
| COc1cccc2c1c(O)c(C(=O)N(Cc1ccccc1)c1ccc(C(F)(F)F)cc1)c(=O)n2C [ESATA-18] | 50 +/− 18% | 10700 | – | – |
| COc1cccc2c1c(O)c(C(=O)N/N=C/c1ccc(C(F)(F)F)cc1)c(=O)n2C [ESATA-24] | – | 800 | – | – |
| CCCCCCCN(C(=O)c1c(O)c2c(OC)cccc2n(C)c1=O)c1ccc(C(F)(F)F)cc1 [ESATA-11] | – | 50 | – | – |
| COc1cccc2c1CC(C(=O)N(C)c1ccc(C(F)(F)F)cc1)C(=O)N2C (stereo not shown) [ESATA-5] | – | 300 | – | – |
| c1ccc2c(c1)cc1ccc3cccc4ccc2c1c34 [Benzo[α]pyrene, benzo[a]pyrene] | <10% | – | – | inhibition of growth of LvCaP-3 xenografts at the end of study [3]: completely lacks therapeutic efficacy; thymus weight (thymus; 10 mg/kg/d oral for 14 days): 27 ± 8 mg; Thymus Regression (% decrease weight +/− SD) (thymus; mice treated orally for 2 weeks, 10 mg/kg/d, n = 5/group): 51 +/− 7% |
| COc1cccc2c1c(O)c(C(=O)N(c1ccc(C(F)(F)F)cc1)C(C)C)c(=O)n2C [ESATA-30] | <10% | 1400 | no GI activity | – |
| COc1cccc2c1c(O)c(C(=O)N(c1ccccc1)C(C)C)c(=O)n2C [ESATA-27] | <10% | 850 | – | – |
| COc1cccc2c1c(OCCNC(=O)OC(C)(C)C)c(C(=O)N(c1ccc(C(F)(F)F)cc1)C1CCCCC1)c(=O)n2C [ESATA-26] | <10% | > 50000 | no GI activity | – |
| CN(C(=O)c1c(O)c2ccccc2n(C)c1=O)c1ccccc1 [Linomide, roquinimex] | – | – | – | fraction of the immobilized fl-HDAC4 protein bound (fl-HDAC4 (wild-type)): 10-15%; adverse events in Phase III clinical trials (mCRPC patients): several cases of pericarditis and neuropathy |
| COc1cccc2c1c(O)c(C(=O)N(c1ccc(C(F)(F)F)cc1)C1CCC(C(F)(F)F)CC1)c(=O)n2C (stereo not shown) [ESATA-22] | <10% | 12000 | no GI activity | – |
| COc1cccc2c1c(O)c(C(=O)Nc1ccc(C(F)(F)F)cc1)c(=O)n2C [ESATA-4] | 86 +/− 9% | 0.5 | high GI activity | – |
